Reference: ChEMBL document CHEMBL1139161, “[d4U]-butyne-[HI-236] as a non-cleavable, bifunctional NRTI/NNRTI HIV-1 reverse-transcriptase inhibitor” (Bioorg Med Chem Lett, 2007)

Assays:
[1] = Therapeutic index, ratio of IC50 for human MT2 cells to EC50 for HIV1 3B; assay type: cell-based; conditions: read-out: Ratio IC50/EC50
[2] = test system: Human immunodeficiency virus 1; assay: Antiviral activity against HIV1 3B in MT2 cells assessed as inhibition of viral-mediated T-cell death by MTT method; assay type: functional, organism-based; conditions: Human immunodeficiency virus 1, 3B
[3] = test system: MT2; assay: Cytotoxicity against human MT2 cells; assay type: cell-based

COc1ccc(OC)c(CCNC(=S)Nc2ccc(Br)cn2)c1
selectivity ratio [1]: > 24
EC50 [2]: 42 nM
IC50 [3]: > 1000 nM

C#CCCOc1ccc(OC)cc1CCNC(=S)Nc1ccc(Br)cn1
selectivity ratio [1]: > 44
EC50 [2]: 23 nM
IC50 [3]: > 1000 nM

COc1ccc(OCCC#Cc2cn(C3C=CC(CO)O3)c(=O)[nH]c2=O)c(CCNC(=S)Nc2ccc(Br)cn2)c1 (configuration not stated)
selectivity ratio [1]: 68
EC50 [2]: 250 nM
IC50 [3]: 17000 nM

Cc1cn([C@H]2C=C[C@@H](CO)O2)c(=O)[nH]c1=O [STAVUDINE]
selectivity ratio [1]: > 50
EC50 [2]: 2000 nM
IC50 [3]: > 100000 nM
